Like-named read-outs stand apart in the source and are kept apart here.
System: Scutica
Experiment: Extinction effect for Scutica in vitro
Format: cell-based
Protocol: Scutica used in this experiment was taken from epidermal mucus of infected flatfish and suspended in HBSS. The suspension was kept at room temperature for 30 min and centrifuged at 800 rpm for 10 min. The supernatant was removed. The pellet was suspended in MEM-10 (minimum essential medium, 10% FBS, streptomycine, penicilin) and kept for 30 min, and then centrifuged in the same manner as above. The supernatant was removed and left imagoes was gained and made into imagoes suspension with certain number of imagoes by counting with the blood counting machine. The imagoes suspension was subcultured in vitro and inoculated to prepared FHM cell of certain number (2.5×10^5 cells/mL) and then cultured at 17° C. Before carrying out the experiment, by measuring the extinction effect for Scutica according to the concentration of δ-aminolevulinic acid and reaction time, optimum δ-aminolevulinic acid concentration and treatment time was examined for Scutica extermination. The Scutica culture solution cultured in FHM cell line was centrifuged at 3000 rpm for 5 min. The supernatant was removed and was added to PBS. It was washed 3 times to use for the experiment. 1.0 M δ-aminolevulinic acid solution made from sterilized 3rd distilled water was diluted by 2-fold up to 1000-fold (1.0 mM). Scutica was added to each well of 96-well microplate at an amount of 50 μL. Then, δ-aminolevulinic acid solution diluted by 2 steps were added and cultured for 120 min while the viability of Scutica was monitored. During the culture for 120 min, extinction time was measured in 10 min intervals, at each concentration. Between each inoculation, they were stirred for 5 min and were kept for 5 min. after reaction, 1% trypan blue which is staining solution for organism was added to each wells at an amount of 100 μL and mixed. In cultured Scutica with the diluted solution of δ-aminolevulinic acid, the number of parasites was counted by the blood counting machine, according to time. […] Through the 60 min-treatment, more than 50% of Scutica were extinct. At the actual concentration of 2 mM, about 50% of Scutica was extinct through 1 hour-treatment.

## NCC(=O)CCC(=O)O [δ-aminolevulinic acid]
500 mM to 2 mM, treatment of at minimum 2 hours
  Scutica extinct: more than 90%
30˜15 mM
  time to completely extinct Scutica: 20 min
500 to 60 mM
  time to completely extinct Scutica: 10 min
60 min-treatment, concentration not given
  Scutica extinct: more than 50%
Actual concentration of 2 mM, 1 hour-treatment
  Scutica extinct: about 50%
Actual concentration of 8 mM
  time to completely extinct Scutica: 60 min
read-out: Viability (%) of Scutica, 2.0 mM, reaction time 10
  viability at 2000 µM: 50%
read-out: Viability (%) of Scutica, 2.0 mM, reaction time 20
  viability at 2000 µM: 60%
read-out: Viability (%) of Scutica, 2.0 mM, reaction time 30
  viability at 2000 µM: 40%
read-out: Viability (%) of Scutica, 2.0 mM, reaction time 40
  viability at 2000 µM: 45%
read-out: Viability (%) of Scutica, 2.0 mM, reaction time 50
  viability at 2000 µM: 35%
read-out: Viability (%) of Scutica, 2.0 mM, reaction time 60
  viability at 2000 µM: 55%
read-out: Viability (%) of Scutica, 2.0 mM, reaction time 70
  viability at 2000 µM: 40%
read-out: Viability (%) of Scutica, 2.0 mM, reaction time 80
  viability at 2000 µM: 40%
read-out: Viability (%) of Scutica, 2.0 mM, reaction time 90
  viability at 2000 µM: 35%
read-out: Viability (%) of Scutica, 2.0 mM, reaction time 110
  viability at 2000 µM: 40%
read-out: Viability (%) of Scutica, 2.0 mM, reaction time 120
  viability at 2000 µM: 10%
read-out: Viability (%) of Scutica, 4.0 mM, reaction time 10
  viability at 4000 µM: 50%
read-out: Viability (%) of Scutica, 4.0 mM, reaction time 20
  viability at 4000 µM: 50%
read-out: Viability (%) of Scutica, 4.0 mM, reaction time 30
  viability at 4000 µM: 30%
read-out: Viability (%) of Scutica, 4.0 mM, reaction time 40
  viability at 4000 µM: 30%
read-out: Viability (%) of Scutica, 4.0 mM, reaction time 50
  viability at 4000 µM: 20%
read-out: Viability (%) of Scutica, 4.0 mM, reaction time 60
  viability at 4000 µM: 45%
read-out: Viability (%) of Scutica, 4.0 mM, reaction time 70
  viability at 4000 µM: 30%
read-out: Viability (%) of Scutica, 4.0 mM, reaction time 80
  viability at 4000 µM: 45%
read-out: Viability (%) of Scutica, 4.0 mM, reaction time 90
  viability at 4000 µM: 40%
read-out: Viability (%) of Scutica, 4.0 mM, reaction time 110
  viability at 4000 µM: 10%
read-out: Viability (%) of Scutica, 4.0 mM, reaction time 120
  viability at 4000 µM: 10%
read-out: Viability (%) of Scutica, 8.0 mM, reaction time 10
  viability at 8000 µM: 45%
read-out: Viability (%) of Scutica, 8.0 mM, reaction time 20
  viability at 8000 µM: 50%
read-out: Viability (%) of Scutica, 8.0 mM, reaction time 30
  viability at 8000 µM: 45%
read-out: Viability (%) of Scutica, 8.0 mM, reaction time 40
  viability at 8000 µM: 25%
read-out: Viability (%) of Scutica, 8.0 mM, reaction time 50
  viability at 8000 µM: 40%
read-out: Viability (%) of Scutica, 8.0 mM, reaction time 60
  viability at 8000 µM: 40%
read-out: Viability (%) of Scutica, 8.0 mM, reaction time 70
  viability at 8000 µM: 0%
read-out: Viability (%) of Scutica, 8.0 mM, reaction time 80
  viability at 8000 µM: 0%
read-out: Viability (%) of Scutica, 8.0 mM, reaction time 90
  viability at 8000 µM: 0%
read-out: Viability (%) of Scutica, 8.0 mM, reaction time 110
  viability at 8000 µM: 0%
read-out: Viability (%) of Scutica, 8.0 mM, reaction time 120
  viability at 8000 µM: 0%
read-out: Viability (%) of Scutica, 15 mM, reaction time 10
  viability at 15000 µM: 30%
read-out: Viability (%) of Scutica, 15 mM, reaction time 20
  viability at 15000 µM: 0%
read-out: Viability (%) of Scutica, 15 mM, reaction time 30
  viability at 15000 µM: 0%
read-out: Viability (%) of Scutica, 15 mM, reaction time 40
  viability at 15000 µM: 0%
read-out: Viability (%) of Scutica, 15 mM, reaction time 50
  viability at 15000 µM: 0%
read-out: Viability (%) of Scutica, 15 mM, reaction time 60
  viability at 15000 µM: 0%
read-out: Viability (%) of Scutica, 15 mM, reaction time 70
  viability at 15000 µM: 0%
read-out: Viability (%) of Scutica, 15 mM, reaction time 80
  viability at 15000 µM: 0%
read-out: Viability (%) of Scutica, 15 mM, reaction time 90
  viability at 15000 µM: 0%
read-out: Viability (%) of Scutica, 15 mM, reaction time 110
  viability at 15000 µM: 0%
read-out: Viability (%) of Scutica, 15 mM, reaction time 120
  viability at 15000 µM: 0%
read-out: Viability (%) of Scutica, 30 mM, reaction time 10
  viability at 30000 µM: 20%
read-out: Viability (%) of Scutica, 30 mM, reaction time 20
  viability at 30000 µM: 0%
read-out: Viability (%) of Scutica, 30 mM, reaction time 30
  viability at 30000 µM: 0%
read-out: Viability (%) of Scutica, 30 mM, reaction time 40
  viability at 30000 µM: 0%
read-out: Viability (%) of Scutica, 30 mM, reaction time 50
  viability at 30000 µM: 0%
read-out: Viability (%) of Scutica, 30 mM, reaction time 60
  viability at 30000 µM: 0%
read-out: Viability (%) of Scutica, 30 mM, reaction time 70
  viability at 30000 µM: 0%
read-out: Viability (%) of Scutica, 30 mM, reaction time 80
  viability at 30000 µM: 0%
read-out: Viability (%) of Scutica, 30 mM, reaction time 90
  viability at 30000 µM: 0%
read-out: Viability (%) of Scutica, 30 mM, reaction time 110
  viability at 30000 µM: 0%
read-out: Viability (%) of Scutica, 30 mM, reaction time 120
  viability at 30000 µM: 0%
read-out: Viability (%) of Scutica, 60 mM, reaction time 10
  viability at 60000 µM: 0%
read-out: Viability (%) of Scutica, 60 mM, reaction time 20
  viability at 60000 µM: 0%
read-out: Viability (%) of Scutica, 60 mM, reaction time 30
  viability at 60000 µM: 0%
read-out: Viability (%) of Scutica, 60 mM, reaction time 40
  viability at 60000 µM: 0%
read-out: Viability (%) of Scutica, 60 mM, reaction time 50
  viability at 60000 µM: 0%
read-out: Viability (%) of Scutica, 60 mM, reaction time 60
  viability at 60000 µM: 0%
read-out: Viability (%) of Scutica, 60 mM, reaction time 70
  viability at 60000 µM: 0%
read-out: Viability (%) of Scutica, 60 mM, reaction time 80
  viability at 60000 µM: 0%
read-out: Viability (%) of Scutica, 60 mM, reaction time 90
  viability at 60000 µM: 0%
read-out: Viability (%) of Scutica, 60 mM, reaction time 110
  viability at 60000 µM: 0%
read-out: Viability (%) of Scutica, 60 mM, reaction time 120
  viability at 60000 µM: 0%
read-out: Viability (%) of Scutica, 125 mM, reaction time 10
  viability at 125000 µM: 0%
read-out: Viability (%) of Scutica, 125 mM, reaction time 20
  viability at 125000 µM: 0%
read-out: Viability (%) of Scutica, 125 mM, reaction time 30
  viability at 125000 µM: 0%
read-out: Viability (%) of Scutica, 125 mM, reaction time 40
  viability at 125000 µM: 0%
read-out: Viability (%) of Scutica, 125 mM, reaction time 50
  viability at 125000 µM: 0%
read-out: Viability (%) of Scutica, 125 mM, reaction time 60
  viability at 125000 µM: 0%
read-out: Viability (%) of Scutica, 125 mM, reaction time 70
  viability at 125000 µM: 0%
read-out: Viability (%) of Scutica, 125 mM, reaction time 80
  viability at 125000 µM: 0%
read-out: Viability (%) of Scutica, 125 mM, reaction time 90
  viability at 125000 µM: 0%
read-out: Viability (%) of Scutica, 125 mM, reaction time 110
  viability at 125000 µM: 0%
read-out: Viability (%) of Scutica, 125 mM, reaction time 120
  viability at 125000 µM: 0%
read-out: Viability (%) of Scutica, 250 mM, reaction time 10
  viability at 250000 µM: 0%
read-out: Viability (%) of Scutica, 250 mM, reaction time 20
  viability at 250000 µM: 0%
read-out: Viability (%) of Scutica, 250 mM, reaction time 30
  viability at 250000 µM: 0%
read-out: Viability (%) of Scutica, 250 mM, reaction time 40
  viability at 250000 µM: 0%
read-out: Viability (%) of Scutica, 250 mM, reaction time 50
  viability at 250000 µM: 0%
read-out: Viability (%) of Scutica, 250 mM, reaction time 60
  viability at 250000 µM: 0%
read-out: Viability (%) of Scutica, 250 mM, reaction time 70
  viability at 250000 µM: 0%
read-out: Viability (%) of Scutica, 250 mM, reaction time 80
  viability at 250000 µM: 0%
read-out: Viability (%) of Scutica, 250 mM, reaction time 90
  viability at 250000 µM: 0%
read-out: Viability (%) of Scutica, 250 mM, reaction time 110
  viability at 250000 µM: 0%
read-out: Viability (%) of Scutica, 250 mM, reaction time 120
  viability at 250000 µM: 0%
read-out: Viability (%) of Scutica, 500 mM, reaction time 10
  viability at 500000 µM: 0%
read-out: Viability (%) of Scutica, 500 mM, reaction time 20
  viability at 500000 µM: 0%
read-out: Viability (%) of Scutica, 500 mM, reaction time 30
  viability at 500000 µM: 0%
read-out: Viability (%) of Scutica, 500 mM, reaction time 40
  viability at 500000 µM: 0%
read-out: Viability (%) of Scutica, 500 mM, reaction time 50
  viability at 500000 µM: 0%
read-out: Viability (%) of Scutica, 500 mM, reaction time 60
  viability at 500000 µM: 0%
read-out: Viability (%) of Scutica, 500 mM, reaction time 70
  viability at 500000 µM: 0%
read-out: Viability (%) of Scutica, 500 mM, reaction time 80
  viability at 500000 µM: 0%
read-out: Viability (%) of Scutica, 500 mM, reaction time 90
  viability at 500000 µM: 0%
read-out: Viability (%) of Scutica, 500 mM, reaction time 110
  viability at 500000 µM: 0%
read-out: Viability (%) of Scutica, 500 mM, reaction time 120
  viability at 500000 µM: 0%

From patent US20010053796A1, “Delta-aminolevulinic acid for prevention and treatment of infection microorganisms and parasite” (priority 2000, published 2001)
